For test [1], the system named is Salmonella Typhimurium ATCC 14028. Nature of the test: Antibiofilm assay (static peg assay, Calgary biofilm device, crystal violet staining; planktonic growth via OD600). The test is classed as cell-based, Salmonella enterica serovar Typhimurium. On the procedure: (§1) A static peg assay for the prevention of bacterial biofilm formation was used as described previously. A lid carrying 96 polystyrene pegs was fitted into a microtiter plate with a peg hanging into each well. Two-fold serial dilutions of the compounds in 100 μl liquid broth per well were prepared in the microtiter plate. Subsequently, an overnight culture was diluted 1:100 into the respective liquid broth, and 100 μl (˜10^6 cells) was added to each well of the microtiter plate, resulting in a total amount of 200 μl medium per well. After placing the lid on the microtiter plate, samples containing Salmonella, Pseudomonas or E. coli were incubated statically in TSB 1/20 for 48 h at 25° C., whereas S. aureus was incubated in undiluted TSB at 37° C. for 48 h. After incubation, the lid was removed from the microtiter plate and liquid culture was transferred to a new microtiter plate prior to determining the prior to determining the planktonic growth in each well via OD600 measurements using a Synergy MX multimode reader (Biotek, Winooski, VT). The pegs were washed once in 200 μl PBS and the remaining attached bacteria were stained for 30 min with 200 μl 0.1% crystal violet in an isopropanol-methanol-PBS solution (1:1:18). Excess stain was washed off by placing the pegs in a 96-well plate filled with 200 μl distilled water per well. Afterwards, the pegs were air dried for 30 min and the dye bound to the adherent cells dissolved into 200 μl 30% glacial acetic acid. The OD570 of each well was measured using a Synergy MX multimode reader. Data was analysed using the GraphPad Prism 6 software.

Test [2] concerns S. Typhimurium SL1344 (S1), S. Typhimurium ATCC14028 (S2) and E. coli MG1655 (E1). Nature of the test: Mixed-species biofilm assay (CFU). It counts as cell-based, Salmonella Typhimurium and E. coli. The text has this:
In situ, biofilms are typically complex communities consisting of various bacterial strains and species [Elias & Banin (2012) FEMS Microbiol Rev 36, 990-1004; Burmølle et al. (2014) Trends Microbiol 22, 84-91; Giaouris et al. (2015) Front Microbiol 6, Article 841; Mitri & Richard Foster (2013) Communities. Annual Review of Genetics 47, 247-273]. […] Microbial ecology 68, 146-154]. Hereto, a a previously characterized model community was utilized consisting of two Salmonella and one E. coli strain (S. Typhimurium SL1344 (S1), S. Typhimurium ATCC14028 (S2) and E. coli MG1655 (E1)). […] The reduced biofilm productivity of the mixed-species community is mainly due to the inhibition of the S2 strain (FIG. 6B). The lack of […] inhibition in mixed-species conditions is possibly due to agaric acid weakening the competitive interactions experienced by S1 (FIG. 6C). […] Consequently, […] detected the damage imposed by competition via its stress response systems and induces a competitive response. […] Therefore, it was subsequently explored whether agaric acid can interfere with the increased tolerance in mixed-species conditions by weakening the competition and preventing the induction of this competitive response.
ONCs of S1, S2 and E1 were normalized to an OD595 of 3.2 and added to a small (60 mm Ø) glass Petri dishes containing 10 ml of 1/20 TSB. The three strain were inoculated in a 1:1:1 ratio and incubated under static conditions at 25° C. for 48 h. The same total number of cells was inoculated in mono- and mixed-species conditions (˜12*10^7 cells ml^−1). Afterwards, the liquid above the biofilms was poured off and the biofilms were scraped off the bottom of the plate in 1 ml of PBS, passed through a syringe (25 G) and vortexed to break down the biofilm structure and ensure an homogenous suspension during dilution. The number of colony forming units (CFU) of biofilms was determined by plating. To differentiate between the strains, S1 was labelled with constitutive gfpmut3 on a plasmid, while S2 and E1 were labelled with plasmid-encoded constitutive dsRed.T4. […]

In test [3] the test system is S. Typhimurium ATCC 14028. The experiment in a line: Microscopic analysis of fluorescently labelled biofilms. The test is classed as cell-based, Salmonella enterica serovar Typhimurium. The settings on record: 100 μM, 48 h. On the procedure: ONCs of S. Typhimurium ATCC 14028 containing the pFPV25.1 plasmid encoding for constitutive GFPmut3 productions were normalized to an an OD595 of 3.2 and 20 μl was added to a glass bottom microwell dishes (35 mm Ø petri dish, 20 mm Ø microwell) containing 2 ml 1/20 TSB and 100 μg ml^−1 of ampicillin and a final concentration of 100 μM agaric or the corresponding amount of DMSO. Around 12*10^7 ml^−1 cells were inoculated and incubated under static conditions at 25° C. for 48 h. After incubation, the planktonic phase was gently poured off and the biofilm was washed with 1 ml PBS. Biofilms were visualized with […]

In test [4] the test system is Salmonella. The experiment in a line: Minimal inhibitory concentration (MIC) assay. The test is classed as cell-based, Salmonella enterica serovar Typhimurium. As to conditions: TSB 1/20, 24 h, 25° C., same conditions as the biofilm assay. On the procedure: MIC values were determined in a 96-well plate. Two-fold serial dilutions of agaric acid or DMSO were prepared in 100 μl of TSB 1/20 and 100 μL of the inoculum diluted 1/100 in TSB 1/20 was added. The plate was covered with a Breathable Sealing Membrane and a lid and incubated for 24 h at 25° C., shaking at 200 rpm.

Another test deals with P. aeruginosa PA14. The experiment in a line: Antibiofilm assay (Calgary biofilm device). The test is classed as cell-based, Pseudomonas aeruginosa. On the procedure: as §1
In a further test the test system is E. coli TG1. The experiment in a line: Antibiofilm assay (Calgary biofilm device). The test is classed as cell-based, Escherichia coli. On the procedure: as §1, with “Excess stain was washed off by placing the pegs in a 96-well plate filled with 200 μl distilled water per well. Afterwards, the pegs were air dried for 30 min and the dye bound to the adherent cells dissolved into 200 μl 30% glacial acetic acid.” left out

The next test deals with S. aureus SH1000. Nature of the test: Antibiofilm assay (Calgary biofilm device). It counts as cell-based, Staphylococcus aureus. On the procedure:
as §1

The subject of test [5] is Salmonella. Nature of the test: Soft agar swimming assay. The test is classed as cell-based, Salmonella enterica serovar Typhimurium. As to conditions: 100 μM, 0.25% agar, 24 h, 25° C. On the procedure: Based on Kim & Surette (2003) Biol Proced Online 5, 189-196, swimming plates were made by mixing 30 ml TSB 1/20 with 0.25% agar. These plates contained either a final concentration of 100 μM agaric or the corresponding amount of DMSO. After 2 h drying at room temperature, 3 μl of an overnight culture was inoculated by piercing the surface of the agar with the pipette tip. The plates were incubated upright for 24 h at 25° C., afterwards the size of the halo was measured and visually recorded.

[6] abbreviates: comparison of effective concentrations.

From patent publication US20240196889A1, “USE OF DI- AND TRI[…] ACIDS IN THE PREVENTION OF BIOFILM FORMATION” (priority 2020, published 2024) come the findings set out here.

In brackets after ≈: the same amount, converted by molar mass.

As usually defined, the inhibition is how much of the control response was suppressed.

`CCCCCCCCCCCCCCCCC(C(=O)O)C(O)(CC(=O)O)C(=O)O` (centres unmarked) [Agaric acid, 2-hydroxynonadecane-1,2,3-tricarboxylic acid]: the inhibition at 800 µM in test [1] (Salmonella enterica, at 800 μM, crystal violet staining, read-out: inhibition of biofilm formation) came to 99.9%. Further, the “planktonic growth (OD600)” value is recorded as “not inhibited” in test [1] (after 48 h incubation in the Calgary biofilm device); “inhibits” in the test with P. aeruginosa PA14; “unaffected, except for an increase at the highest concentration” in the test with E. coli TG1; “inhibits” in the test with S. aureus SH1000. Besides, the “concentrations at which biofilm formation is significantly prevented” value in test [1] (crystal violet staining, TSB 1/20, 48 h, 25° C.) is “higher than 100 μM”. Moreover, the “planktonic growth (OD600) at the highest concentration” value in test [1] (highest concentration tested) is recorded as “enhanced”. For the same compound, the “competition experienced by S1 in presence of S2 and E1” value in test [2] is recorded as “weakens the competition experienced by S1”. For the same compound, the “biofilm formation of S2 strain in the mixed-species community” value in test [2] (100 μM) is “significantly inhibited”. Further, the “number of biofilm cells of mixed-species consortium attached to abiotic surface” value in test [2] (S1, S2 and E1 1:1:1, 48 h, 25° C.) is “significantly reduced the number of biofilm cells”. Further, in test [3], the “biofilm density by microscopy” value was “less dense compared to the control”. Also, in the test with Salmonella [4], the MIC is 8 mM (≈ 3330 µg/mL). The “biofilm inhibition versus planktonic growth inhibition” value in the test with P. aeruginosa PA14 (setting [6]) is given as “planktonic growth is reduced at lower concentrations than biofilm inhibition”. For the same compound, the biofilm formation entry in the test on P. aeruginosa PA14 (crystal violet staining) is reported as “inhibits”; in the test on S. aureus SH1000 (crystal violet staining, undiluted TSB, 37° C., 48 h), “inhibits”. In addition, the “biofilm inhibition versus planktonic growth inhibition at high concentrations” value with P. aeruginosa PA14 (high concentrations of agaric acid) is “biofilm formation is inhibited to a higher extent than planktonic growth”. For the same compound, in the test on E. coli TG1 (crystal violet staining), the “concentration at which significant biofilm inhibition already occurred” value amounted to 12.5 µM. Further, the “biofilm inhibition versus bactericidal effect” value with S. aureus SH1000 (setting [6]) is “biofilm inhibition occurred already at a lower concentration than the bactericidal effect”. The “swimming motility (halo formation)” value in the test with Salmonella [5] is on record as “no halo was formed”; with Salmonella [5] (listed as agaric acid), “almost completely inhibited motility”.
